Test results as given in publication PMC6214014, “Dendrimeric Poly(Epsilon-Lysine) Delivery Systems for the Enhanced Permeability of Flurbiprofen across the Blood-Brain Barrier in Alzheimer’s Disease” (International Journal of Molecular Sciences, 2018).
Where “and” joins values, the source holds several entries; their conditions need not be identical. Equal entries are not always repeated.

Key:
bEnd.3 cells monolayer = system: bEnd.3 cells monolayer; parameters: method as in PMID 24280275; settings: cited from earlier work
[1] = parameters: method as in PMID 7736686; settings: cited from earlier work
[2] = parameters: method as in PMID 7736686; settings: cited from earlier work; remark: listed apart in the source
γ-secretase enzyme = assay: Quantification of γ-secretase enzyme in C6 glial cells (sandwich ELISA); type: cell-based; settings: 200 µM, 4 h incubation, untreated control 28.43 ± 8.32 pg/mL, n = 6
Procedure: The C6 glial cells seeded in a density of 5 × 10^4 cells per cm^2 and incubated at 37 °C and 5% CO2. The investigation is based on sandwich enzyme-linked immune-sorbent assay (ELISA) technology using γ-secretase enzyme kit (Abbexa Ltd., Cambridge, UK). C6 glial cells were cultured in 24-well plates at density 5 × 10^4 cells per cm^2, and at confluence, they were treated with 200 μM FP, […]-FP, or […]-FP dissolved in […] media. Wells containing untreated C6 cells were also included as a control. After 4 h incubation, cells were washed with PBS and lysed via freezing to -20 °C and thawing to room temperature 3 times. […] The collected samples were used immediately to avoid any degradation and denaturalisation. The standard curve of γ-secretase standards (supplied with kit) was constructed and the concentration of γ-secretase was calculated for each sample.

[3] = system: in vitro BBB model (bEnd.3 cells); assay: Penetration across the in vitro BBB model (bEnd.3 monolayer on Transwell inserts, HPLC); type: in vitro ADME, mouse; settings: bEnd.3 Transwell, n = 6
Procedure: The lyophilised powders of synthesised molecules (G0K-FP and G1K-FP) as well as free drug (FP) were dissolved in the FBS-free; phenol-free culture media in a concentration of 200 µM. Quantitative analysis of drug and drug-attached dendrons penetration was conducted using HPLC (Agilent technology/1260 infinity, Stockport, UK). The analysis was carried out using a hydrophobic C18 column (150 × 4.6 mm) and a UV-detection wavelength 248 nm which is the λmax of FP [5]. The gradient of eluent of the mobile phase was run from 75:25 to 25:75 of water: acetonitrile over 20 min. The standard curve for each molecule was obtained to calculate the percentage of transported amount across the in vitro BBB model.
To establish an in vitro BBB model, bEnd.3 cells were cultured on microporous membrane (0.4 µm pore size) of 12-Transwell inserts (Fisher Scientific) with complete culture media. TEER values between apical and basolaterl chambers was measured using an Evom voltometer (Sarasota, FL, USA) to determine the day of maximum values indicating tight junction formation. The measurements were taken up to day 8 of culturing and compared to the results of HUVECs which were also cultured into Transwell-clear inserts. Cell-free Transwell inserts were included to exclude the resistance related to the inserts membrane alone. The apical chambers of bEnd.3 culture were then treated with 200 µM of each samples. After 1 and 4 h incubation, 200 µL samples were taken from the basolateral chambers and percentage of permeability calculated according to the following:PMaterial % = ((CAcceptor × VAcceptor)/(CDonor × VDonor)) × 100%(1) where PMaterial %: the percentage of permeability of the tested material, CAcceptor: the concentration of the tested material in basal chamber, VAcceptor: the volume of the culture media in the basal chamber, CDonor: the initial concentration of the tested material in the apical chamber, VDonor: the volume of the culture media in the apical chamber.

γ-secretase = system: γ-secretase; parameters: method as in PMID 20009055, PMID 18450517; settings: at the target tissue site; cited from earlier work
[4] = system: brain endothelial cells and Caco-2 cell monolayers; parameters: method as in PMID 23089576; settings: cited from earlier work
[5] = 1 h after applying 200 µM to apical chamber
[6] = 4 h after applying 200 µM to apical chamber

## CC(C(=O)O)c1ccc(-c2ccccc2)c(F)c1 (stereo not drawn) [FP, Flurbiprofen]
bEnd.3 cells monolayer
  diffusion through bEnd.3 cells monolayer: approximately 10%
[1]
  biological half-life: 4 h
  time to full excretion from the body: ≤ 24 h
[2]
  water solubility: poorly water-soluble
γ-secretase enzyme
  γ-Secretase Enzyme Concentration (Mean ± SD): 8.2 pg/mL and 8.20 ± 3.80 pg/mL
[3]; [5]
  % Of Permeability (Mean ± SD): 2.71 ± 1.52%
[3]; [6]
  % Of Permeability (Mean ± SD): 8.50 ± 1.32%
[3]; 4 h after applying 200 µM to apical chamber, listed as Free FP
  % Of Permeability (Mean ± SD): less than 9%
[3]; 4 h after applying 200 µM to apical chamber, listed as free drug
  % Of Permeability (Mean ± SD): not more than 8.5%
γ-secretase
  required therapeutic concentration for pharmacologically-significant effect on γ-secretase activity: 150–250 µM

## CC(C(=O)NCCCC[C@H](NC(=O)C(C)c1ccc(-c2ccccc2)c(F)c1)C(=O)N[C@@H](Cc1ccccc1)C(=O)O)c1ccc(-c2ccccc2)c(F)c1 (stereo partly drawn) [G0K-FP, Generation 0 lysine dendron-2Flurbiprofen]
[3]; [5]
  % Of Permeability (Mean ± SD): 5.3% and 5.31 ± 2.73%
[3]; [6]
  % Of Permeability (Mean ± SD): 12.5% and 12.48 ± 3.42%

## CC(C(=O)NCCCC[C@H](NC(=O)C(C)c1ccc(-c2ccccc2)c(F)c1)C(=O)NCCCC[C@H](NC(=O)[C@H](CCCCNC(=O)C(C)c1ccc(-c2ccccc2)c(F)c1)NC(=O)C(C)c1ccc(-c2ccccc2)c(F)c1)C(=O)N[C@@H](Cc1ccccc1)C(=O)O)c1ccc(-c2ccccc2)c(F)c1 (stereo partly drawn) [G1K-FP, Generation 1 lysine dendron-4Flurbiprofen]
[3]; [5]
  % Of Permeability (Mean ± SD): 4.3% and 4.32 ± 1.05%
[3]; [6]
  % Of Permeability (Mean ± SD): 14.8% and 14.79 ± 2.06%

## paclitaxel
[4]
  fold greater permeability than paclitaxel alone: 12 fold
